Measured values from patent US10517889B2, “Modulators of SMAD7 expression” (Ionis Pharmaceuticals, Inc., priority 2017, dated 2019).
Strand notation (5' to 3'): a small letter for the sugar, then the base; units joined by * are phosphorothioate-linked, units joined directly phosphodiester-linked; [ ] holds rarer units or linkages, { } end groups; capitals alone tell only the bases. k = constrained ethyl (cEt); [5mC] = 5-methylcytosine; d = 2'-deoxy (DNA)

Tested on: human SMAD7 mRNA
Experiment: Antisense inhibition of human SMAD7 mRNA expression in Hep3B cells by 3-10-3 cEt gapmers, 10,000 nM, electroporation (Example 2)
Type: cell-based
Conditions: Hep3B cells, approximately 24 hours
Summary of the method: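 Hep3B cells (20,000 per well) were electroporated with 10,000 nM 16-mer 3-10-3 cEt gapmer (phosphorothioate, 5-methylcytosine). After about 24 h, SMAD7 mRNA was quantified by qRT-PCR with primer probe set RTS5062, normalised to RIBOGREEN total RNA, and expressed as percent inhibition versus untreated cells.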

[1] = electroporation with 10,000 nM antisense oligonucleotide, RTS5062, percent inhibition of SMAD7 mRNA relative to untreated control cells
[2] = electroporation, 10,000 nM antisense oligonucleotide, RTS5062, relative to untreated control cells
[3] = electroporation with 10,000 nM antisense oligonucleotide, primer probe set RTS5062, relative to untreated control cells
[4] = electroporation with 10,000 nM antisense oligonucleotide, SMAD7 mRNA by RT-PCR (RTS5062), relative to untreated control cells

Substance: 799294 (antisense k[5mC]*kG*k[5mC]*dG*dG*d[5mC]*d[5mC]*dT*dT*dG*dA*dT*dG*k[5mC]*kT*kG) [compound 799294]
- % Inhibition [1]: 13%

Substance: 799295 (antisense kG*kA*k[5mC]*dT*d[5mC]*dG*d[5mC]*dG*dG*d[5mC]*d[5mC]*dT*dT*kG*kA*kT) [compound 799295]
- % Inhibition [1]: 30%

Substance: 799296 (antisense kG*k[5mC]*kT*dG*dA*d[5mC]*dT*d[5mC]*dG*d[5mC]*dG*dG*d[5mC]*k[5mC]*kT*kT) [compound 799296]
- % Inhibition [1]: 45%

Substance: 799297 (antisense kA*kA*kA*dG*dG*d[5mC]*dT*dG*dA*d[5mC]*dT*d[5mC]*dG*k[5mC]*kG*kG) [compound 799297]
- % Inhibition [1]: 62%

Substance: 799298 (antisense k[5mC]*k[5mC]*kA*dA*dA*dA*dG*dG*d[5mC]*dT*dG*dA*d[5mC]*kT*k[5mC]*kG) [compound 799298]
- % Inhibition [1]: 54%

Substance: 799299 (antisense kA*kT*kT*d[5mC]*d[5mC]*dA*dA*dA*dA*dG*dG*d[5mC]*dT*kG*kA*k[5mC]) [compound 799299]
- % inhibition of SMAD7 mRNA expression [2]: 42%

Substance: 799300 (antisense k[5mC]*kA*k[5mC]*dA*dT*dT*d[5mC]*d[5mC]*dA*dA*dA*dA*dG*kG*k[5mC]*kT) [compound 799300]
- % inhibition of SMAD7 mRNA expression [2]: 28%

Substance: 799301 (antisense k[5mC]*k[5mC]*kA*d[5mC]*dA*d[5mC]*dA*dT*dT*d[5mC]*d[5mC]*dA*dA*kA*kA*kG) [compound 799301]
- % inhibition of SMAD7 mRNA expression [2]: 37%

Substance: 799302 (antisense kA*kA*kA*d[5mC]*d[5mC]*dA*d[5mC]*dA*d[5mC]*dA*dT*dT*d[5mC]*k[5mC]*kA*kA) [compound 799302]
- % inhibition of SMAD7 mRNA expression [2]: 39%

Substance: 799303 (antisense kG*kA*k[5mC]*dA*dA*dA*d[5mC]*d[5mC]*dA*d[5mC]*dA*d[5mC]*dA*kT*kT*k[5mC]) [compound 799303]
- % inhibition of SMAD7 mRNA expression [2]: 73%

Substance: 799304 (antisense kG*kA*kA*dA*dG*dA*d[5mC]*dA*dA*dA*d[5mC]*d[5mC]*dA*k[5mC]*kA*k[5mC]) [compound 799304]
- % inhibition of SMAD7 mRNA expression [2]: 54%

Substance: 799305 (antisense k[5mC]*kA*kT*dG*dA*dA*dA*dG*dA*d[5mC]*dA*dA*dA*k[5mC]*k[5mC]*kA) [compound 799305]
- % inhibition of SMAD7 mRNA expression [2]: 0%

Substance: 799306 (antisense kA*kA*kA*d[5mC]*dA*dG*d[5mC]*dA*dT*dG*dA*dA*dA*kG*kA*k[5mC]) [compound 799306]
- % inhibition of SMAD7 mRNA expression [2]: 27%

Substance: 799307 (antisense kT*k[5mC]*kT*dA*dA*dA*d[5mC]*dA*dG*d[5mC]*dA*dT*dG*kA*kA*kA) [compound 799307]
- % inhibition of SMAD7 mRNA expression [2]: 10%

Substance: 799308 (antisense k[5mC]*kG*k[5mC]*dT*d[5mC]*dT*dA*dA*dA*d[5mC]*dA*dG*d[5mC]*kA*kT*kG) [compound 799308]
- % inhibition of SMAD7 mRNA expression [2]: 47%

Substance: 799309 (antisense kG*k[5mC]*kA*d[5mC]*dG*d[5mC]*dT*d[5mC]*dT*dA*dA*dA*d[5mC]*kA*kG*k[5mC]) [compound 799309]
- % Inhibition [1]: 42%

Substance: 799310 (antisense kT*kA*kA*dG*d[5mC]*dA*d[5mC]*dG*d[5mC]*dT*d[5mC]*dT*dA*kA*kA*k[5mC]) [compound 799310]
- % Inhibition [1]: 18%

Substance: 799311 (antisense k[5mC]*kT*kT*dT*dA*dA*dG*d[5mC]*dA*d[5mC]*dG*d[5mC]*dT*k[5mC]*kT*kA) [compound 799311]
- % Inhibition [1]: 27%

Substance: 799313 (antisense kA*kT*k[5mC]*d[5mC]*dA*dT*d[5mC]*dT*dT*dT*dA*dA*dG*k[5mC]*kA*k[5mC]) [compound 799313]
- % Inhibition [1]: 0%

Substance: 799314 (antisense k[5mC]*kA*kA*dG*dA*dT*d[5mC]*d[5mC]*dA*dT*d[5mC]*dT*dT*kT*kA*kA) [compound 799314]
- % Inhibition [1]: 0%

Substance: 799315 (antisense k[5mC]*kA*k[5mC]*d[5mC]*dA*dA*dG*dA*dT*d[5mC]*d[5mC]*dA*dT*k[5mC]*kT*kT) [compound 799315]
- % Inhibition [1]: 15%

Substance: 799316 (antisense kA*kA*kA*d[5mC]*dA*d[5mC]*d[5mC]*dA*dA*dG*dA*dT*d[5mC]*k[5mC]*kA*kT) [compound 799316]
- % Inhibition [1]: 0%

Substance: 799317 (antisense kT*kA*kA*dA*dA*dA*d[5mC]*dA*d[5mC]*d[5mC]*dA*dA*dG*kA*kT*k[5mC]) [compound 799317]
- % Inhibition [1]: 0%

Substance: 799319 (antisense kT*kG*k[5mC]*dT*dG*dT*dG*dG*dA*dT*dT*dT*dG*kA*kA*kA) [compound 799319]
- % inhibition of SMAD7 mRNA expression [2]: 0%

Substance: 799320 (antisense kG*kT*k[5mC]*dT*dG*d[5mC]*dT*dG*dT*dG*dG*dA*dT*kT*kT*kG) [compound 799320]
- % inhibition of SMAD7 mRNA expression [2]: 0%

Substance: 799323 (antisense k[5mC]*k[5mC]*kA*dG*dG*dA*dG*dG*dG*dT*dA*dT*dG*k[5mC]*kA*k[5mC]) [compound 799323]
- % inhibition of SMAD7 mRNA expression [3]: 60%

Substance: 799324 (antisense kT*k[5mC]*k[5mC]*d[5mC]*dA*dG*dG*dA*dG*dG*dG*dT*dA*kT*kG*k[5mC]) [compound 799324]
- % inhibition of SMAD7 mRNA expression [3]: 6%

Substance: 799325 (antisense kT*k[5mC]*kT*d[5mC]*d[5mC]*d[5mC]*dA*dG*dG*dA*dG*dG*dG*kT*kA*kT) [compound 799325]
- % inhibition of SMAD7 mRNA expression [3]: 2%

Substance: 799326 (kA*k[5mC]*kA*d[5mC]*dT*d[5mC]*dT*d[5mC]*d[5mC]*d[5mC]*dA*dG*dG*kA*kG*kG; antisense) [compound 799326]
- % inhibition of SMAD7 mRNA expression [3]: 31%

Substance: 799327 (kG*k[5mC]*kA*d[5mC]*dA*d[5mC]*dT*d[5mC]*dT*d[5mC]*d[5mC]*d[5mC]*dA*kG*kG*kA; antisense) [compound 799327]
- % inhibition of SMAD7 mRNA expression [3]: 52%

Substance: 799328 (kA*kT*kG*d[5mC]*dA*d[5mC]*dA*d[5mC]*dT*d[5mC]*dT*d[5mC]*d[5mC]*k[5mC]*kA*kG; antisense) [compound 799328]
- % Inhibition [4]: 0%

Substance: 799329 (kG*kT*kA*dT*dG*d[5mC]*dA*d[5mC]*dA*d[5mC]*dT*d[5mC]*dT*k[5mC]*k[5mC]*k[5mC]; antisense) [compound 799329]
- % Inhibition [4]: 0%

Substance: 799330 (kG*kG*kT*dA*dT*dG*d[5mC]*dA*d[5mC]*dA*d[5mC]*dT*d[5mC]*kT*k[5mC]*k[5mC]; antisense) [compound 799330]
- % Inhibition [4]: 45%

Substance: 799331 (kA*kG*kG*dG*dT*dA*dT*dG*d[5mC]*dA*d[5mC]*dA*d[5mC]*kT*k[5mC]*kT; antisense) [compound 799331]
- % Inhibition [4]: 1%

Substance: 799332 (kG*kG*kG*dA*dA*dT*dG*d[5mC]*d[5mC]*d[5mC]*dT*dT*dT*kG*kA*kG; antisense) [compound 799332]
- % Inhibition [4]: 45%

Substance: 799333 (kA*kG*kA*dA*dA*dA*d[5mC]*d[5mC]*dT*dG*dG*dA*dA*kG*kG*kG; antisense) [compound 799333]
- % Inhibition [4]: 24%

Substance: 799334 (k[5mC]*k[5mC]*kG*dT*dA*dG*dA*d[5mC]*d[5mC]*d[5mC]*d[5mC]*dT*dT*k[5mC]*kG*kG; antisense) [compound 799334]
- % Inhibition [4]: 21%

Substance: 799335 (kT*kG*k[5mC]*dA*dG*dG*dA*dG*d[5mC]*dA*dG*dT*dG*k[5mC]*k[5mC]*k[5mC]; antisense) [compound 799335]
- % Inhibition [4]: 31%

Substance: 799336 (kA*k[5mC]*kT*dG*d[5mC]*dA*dG*dG*dA*dG*d[5mC]*dA*dG*kT*kG*k[5mC]; antisense) [compound 799336]
- % Inhibition [4]: 25%

Substance: 799337 (kG*kT*k[5mC]*dT*dT*dT*d[5mC]*d[5mC]*dG*dG*dG*dT*dG*k[5mC]*kG*kG; antisense) [compound 799337]
- % Inhibition [4]: 30%

Substance: 799338 (kT*kT*kA*dT*dA*dG*d[5mC]*dA*d[5mC]*dG*d[5mC]*d[5mC]*dT*k[5mC]*kT*k[5mC]; antisense) [compound 799338]
- % inhibition of SMAD7 mRNA expression [3]: 0%

Substance: 799339 (kG*kA*kT*dA*d[5mC]*d[5mC]*d[5mC]*dA*dG*dT*dT*d[5mC]*dG*kG*k[5mC]*k[5mC]; antisense) [compound 799339]
- % inhibition of SMAD7 mRNA expression [3]: 18%

Substance: 799340 (kA*kG*kA*dT*dA*d[5mC]*d[5mC]*d[5mC]*dA*dG*dT*dT*d[5mC]*kG*kG*k[5mC]; antisense) [compound 799340]
- % inhibition of SMAD7 mRNA expression [3]: 0%

Substance: 799341 (kG*kA*kA*dG*dG*dA*dA*dA*dA*dA*dG*dT*dA*kG*kG*kG; antisense) [compound 799341]
- % inhibition of SMAD7 mRNA expression [3]: 8%

Substance: 799342 (k[5mC]*kT*kT*dA*dT*d[5mC]*dT*dG*dT*dG*d[5mC]*dG*dG*kA*kA*kG; antisense) [compound 799342]
- % inhibition of SMAD7 mRNA expression [3]: 44%

Substance: 799343 (kA*k[5mC]*kT*dA*dA*dT*d[5mC]*dT*dA*d[5mC]*dA*dG*dA*k[5mC]*kT*kT; antisense) [compound 799343]
- % inhibition of SMAD7 mRNA expression [3]: 53%

Substance: 799344 (k[5mC]*k[5mC]*k[5mC]*dA*d[5mC]*dT*dA*dA*dT*d[5mC]*dT*dA*d[5mC]*kA*kG*kA; antisense) [compound 799344]
- % inhibition of SMAD7 mRNA expression [3]: 34%

Substance: 799345 (k[5mC]*kG*kA*dG*dA*dA*dG*d[5mC]*d[5mC]*d[5mC]*dA*dG*dG*k[5mC]*k[5mC]*k[5mC]; antisense) [compound 799345]
- % inhibition of SMAD7 mRNA expression [3]: 20%

Substance: 799346 (kT*k[5mC]*kT*d[5mC]*dA*dG*d[5mC]*d[5mC]*dG*dA*dG*dA*dA*kG*k[5mC]*k[5mC]; antisense) [compound 799346]
- % inhibition of SMAD7 mRNA expression [3]: 26%

Substance: 799347 (kA*kA*kG*dG*dA*dG*dT*dT*dT*d[5mC]*dA*dG*dG*kG*kT*k[5mC]; antisense) [compound 799347]
- % inhibition of SMAD7 mRNA expression [3]: 59%
